Where two headings read alike, the source gives them in different places.
Assays:
[1] = tested on: HIV-1 Env pseudovirus THRO4156, clone 18; assay: Single-cycle assay TZM-bl, Env pseudovirus panel
[2] = tested on: HIV-1 Env pseudovirus BL274.W6M.ENV.A3; assay: Single-cycle assay, Paired Infant and Maternal Env clones
[3] = tested on: HIV-1 Env pseudovirus QA013.70I.ENV.H1; assay: Single-cycle assay TZM-bl, Env pseudovirus panel
[4] = tested on: MT-2 cells; assay: Cytotoxicity; format: cell-based, human; conditions: read-out: MT-2 CC50, MTS, mean ± SD, n=3
[5] = tested on: HIV-1 Env pseudovirus 9021_14.B2.4571; assay: Single-cycle assay TZM-bl, Env pseudovirus panel
[6] = tested on: HIV-1 Env pseudovirus WEAUd15.410.5017; assay: Single-cycle assay TZM-bl, Env pseudovirus panel
[7] = tested on: HIV-1 Env pseudovirus MJ613.W0M.ENV.A2; assay: Single-cycle assay, Paired Infant and Maternal Env clones
[8] = tested on: HIV-1 Env pseudovirus CRF02_AG, clone 33; assay: Single-cycle assay TZM-bl, Env pseudovirus panel
[9] = tested on: HIV-1IIIB; assay: Multi-cycle infection assay in MT-2 cells; format: cell-based; conditions: read-out: MT-2 IC50, p24, mean ± SD, n=3
[10] = tested on: HIV-1 Env pseudovirus MG505.W0M.ENV.A2; assay: Single-cycle assay, Paired Infant and Maternal Env clones
[11] = Cytotoxicity; format: cell-based; conditions: human, U87-CD4-CCR5 cells
[12] = tested on: TZM-bl cells; assay: Cytotoxicity; format: cell-based; conditions: read-out: TZMb-l CC50; TZM-bl cells, 3 days, MTS; mean ± SD, n=3
[13] = tested on: HIV-1 Env pseudovirus BJ613.W6M.ENV.E1; assay: Single-cycle assay, Paired Infant and Maternal Env clones
[14] = tested on: control pseudovirus VSV-G; assay: microbe, parasite or virus in culture; format: cell-based
[15] = Cytotoxicity; format: cell-based, human; conditions: human, freshly isolated and stimulated uninfected PBMC
[16] = tested on: HIV-1 Env pseudovirus QD435.100M.ENV.E1; assay: Single-cycle assay TZM-bl, Env pseudovirus panel
[17] = tested on: HIV-1 Env pseudovirus QF495.23M.ENV.A3; assay: Single-cycle assay TZM-bl, Env pseudovirus panel
[18] = tested on: panel of HIV-1 Env pseudoviruses; format: cell-based
[19] = molecular target: HIV-1 Reverse Transcriptase (RT) (Human immunodeficiency virus type 1 group M subtype B, UniProt P04585); assay: biochemical; format: biochemical
[20] = tested on: HIV-1LAI; assay: Multi-cycle infection assay in PBMC; conditions: read-out: IC50 HIV-1LAI; human PBMC; CXCR4-tropic lab-adapted virus; p24, 7 days
[21] = tested on: human PBMC; assay: Cytotoxicity; format: cell-based; conditions: human PBMC, 7 days, MTS
[22] = Cytotoxicity; format: cell-based, human; conditions: human, MT-2 cells, MT-2 CC50, MT-2 cells, MTS; mean ± SD, n=3
[23] = Cytotoxicity; format: cell-based; conditions: human, TZM-bl cells, TZMb-l CC50, TZM-bl cells, 3 days, MTS; mean ± SD, n=3

SMILES | IC50 [1] [µM] | IC50 [2] [µM] | IC50 ([3]; TZM-bl) [µM] | CC50 [4] [µM] | IC50 ([5]; TZM-bl) [µM] | IC50 ([6]; TZM-bl) [µM] | IC50 [7] [µM] | IC50 ([8]; TZM-bl) [µM] | IC50 [9] [µM] | IC50 [10] [µM] | CC50 at 3 days [11] [µM] | CC50 [12] [µM] | IC50 [13] [µM] | IC50 ([14]; Pseudovirus, U87/CD4/CCR5) [µM] | CC50 at 7 days [15] [µM] | IC50 [16] [µM] | IC50 ([17]; TZM-bl) [µM] | CC50 at 4 days [22] [µM] | IC50 [19] [µM] | CC50 at 3 days [23] [µM] | other results
CNCC(NC(=O)c1ccc(-c2ccc3c(c2)OCO3)[nH]1)c1nc(CO)cs1 (stereo not drawn) [NBD-14159, 5-(benzo[d][1,3]dioxol-5-yl)-N-(1-(4-(hydroxymethyl)thiazol-2-yl)-2-(methylamino)ethyl)-1H-pyrrole-2-carboxamide] | 2.7 ± 0.2 | 4.2 ± 0.5 | 4.3 ± 0.7 | 180 ± 2 | 3.7 ± 0.3 | 3.3 ± 0.2 | 3.1 ± 0.3 | 2.7 ± 0.2 | 2.98 ± 0.1 | 4.6 ± 0.1 | > 100 | 95.8 ± 1.4 | 3 ± 0.1 | 41.3 ± 3.4 | 68.3 ± 5 | 3.5 ± 0.2 | 3.7 ± 0.1 | – | – | – | –
Cc1nc([C@@H](CN)NC(=O)c2ccc(-c3ccc(F)c(F)c3)[nH]2)sc1CO (single isomer, unassigned) [NBD-14113, reference compound] | – | – | – | 96.8 ± 1.8 | – | – | – | – | – | – | – | 84.1 ± 1.3 | – | – | – | – | – | – | – | – | IC50 ([18]; read-out: IC50 Mean ± SEM: Overall (n=34), mean over 34 HIV-1 Env pseudoviruses): 3.9 ± 0.17 µM; IC50 ([18]; read-out: IC50 Mean ± SEM: Subtype A (n=5), mean over subtype A pseudoviruses): 3.44 ± 0.36 µM; IC50 ([18]; read-out: IC50 Mean ± SEM: Subtype B (n=10), mean over subtype B pseudoviruses): 3.79 ± 0.18 µM; IC50 ([18]; read-out: IC50 Mean ± SEM: Subtype C (n=7), mean over subtype C pseudoviruses): 4.04 ± 0.43 µM; IC50 ([18]; read-out: IC50 Mean ± SEM: Subtype D (n=3), mean over subtype D pseudoviruses): 3.5 ± 0.75 µM; IC50 ([2]; subtype A, NIH # 11525-B (infant), BL274.W6M.ENV.A3): 5.7 ± 0.3 µM; IC50 ([3]; subtype D, NIH # 11911, QA013.70I.ENV.H1, TZM-bl cells): 3.5 ± 0.1 µM; IC50 ([5]; subtype B, NIH # 11572, 9021_14.B2.4571, TZM-bl cells): 3.2 ± 0.2 µM; IC50 ([19]; HIV-1 Reverse Transcriptase, mean ± SD, n=3): 45.9 ± 3.6 µM; IC50 ([6]; subtype B, NIH # 11578, WEAUd15.410.5017, R5X4-tropic virus, TZM-bl cells): 3.7 ± 0.3 µM; IC50 ([7]; subtype A, NIH # 11534-M (maternal), MJ613.W0M.ENV.A2): 4.9 ± 0.2 µM; IC50 ([8]; subtype AG, NIH # 11607, CRF02_AG, clone 33, TZM-bl cells): 3.5 ± 0.2 µM; IC50 ([10]; subtype A, NIH # 11528-M (maternal), MG505.W0M.ENV.A2): 4.7 ± 0.8 µM; IC50 ([13]; subtype A, NIH # 11521-B (infant), BJ613.W6M.ENV.E1): 2.8 ± 0.4 µM; IC50 [20]: 3.8 ± 1.1 µM; IC50 [14]: 26.3 ± 1.4 µM; CC50 [21]: 47.1 ± 2.6 µM; IC50 ([17]; subtype A, NIH # 11891, QF495.23M.ENV.A3, TZM-bl cells): 4 ± 0.2 µM
NCC(NC(=O)c1ccc(-c2ccc3c(c2)OCO3)[nH]1)c1ncc(CO)s1 (stereo not drawn) [NBD-14123, N-(2-amino-1-(5-(hydroxymethyl)thiazol-2-yl)ethyl)-5-(benzo[d][1,3]dioxol-5-yl)-1H-pyrrole-2-carboxamide] | 3.1 ± 0.1 | 5.7 ± 0.3 | 2.5 ± 0.4 | – | 2.1 ± 0.6 | 3.4 ± 0.2 | 4 ± 0.1 | 3.5 ± 0.4 | – | 3.7 ± 0.2 | > 100 | – | 2.5 ± 0.1 | 45.3 ± 2.3 | 61.3 ± 4 | 5.3 ± 0.4 | 3.3 ± 0.2 | 192 ± 2.6 | 39.5 ± 2.8 | 142 ± 2.6 | –
Cc1nc(C(CN)NC(=O)c2ccc(-c3ccc4c(c3)OCO4)[nH]2)sc1CO (stereo not drawn) [NBD-14110, N-(2-amino-1-(5-(hydroxymethyl)-4-methylthiazol-2-yl)ethyl)-5-(benzo[d][1,3]dioxol-5-yl)-1H-pyrrole-2-carboxamide] | 2.7 ± 0.2 | 7.2 ± 0.1 | 2.9 ± 0.3 | – | 4.5 ± 0.5 | 1.6 ± 0.1 | 4.9 ± 0.1 | 5 ± 0.3 | 3.8 ± 1.4 | 6.1 ± 0.5 | > 100 | – | 2.8 ± 0.1 | 51.6 ± 4.4 | 62.8 ± 2.9 | 5.9 ± 0.4 | 3 ± 0.1 | 193 ± 6.3 | 30.6 ± 2.7 | 146 ± 7.6 | –
